Data from patent US20020048566A1, “Modulation of cellular apoptosis and methods for treating cancer” (priority 2000, published 2002).
Residues, ends and D or L forms follow the SMILES beside them. *: point of attachment. Cbz = O=C(OCc1ccccc1)*; CH2F = FC*

Experiments:
Assay type in all cases: cell-based, human
[1] = tested on: adrenal carcinoma cell line SW13; assay: FACS for active caspase 3 after p53 transfection with irreversible caspase inhibitors; conditions: inhibitor 20 μM added four hours after transfection, harvested at 24 hours
Protocol: Transfections and fluorescence-activated cell sorting (FACS) analysis. Transfections were carried out as previously described (Wu et al., 1997). In brief, before transfection, 5×10^5 cells/6 cm well were seeded. The cells were transfected with lipofectamine Plus. Four hours after transfections the media was changed and an irreversible caspase inhibitor, Z-IETD-FMK (caspase 8) or Z-LEHD-FMK (caspase 9) was added to the media at a final concentration of 20 μM. Cells were harvested 24 hours after transfection and prepared for detection of active-caspase 3 by flow cytometry as previously described (Ozoren et al., 2000). For adenoviral experiments, cells were harvested 48 hours after infection and fixed and stained with propidium iodide as previously described (Ozoren et al., 2000). Cell sorting was performed.
FIG. 5. Infection of colon carcinoma cell line SW480 and breast carcinoma cell line SKBr3 with Ad-p53 results in caspase cleavage and apoptosis. (a) Western blot analysis for PARP cleavage after adenovirus infection. SW480 and SKBr3 cell lines were infected with an MOI of 50 with either Ad-LacZ or Ad-p53 and harvested at 0, 24 and 48 hours after infection. […] (b) Western blot analysis of caspase 8 and 9 cleavage after adenovirus infection. […]

SW480 cell lines = assay: FACS sub-G1 content after Ad-p53 infection of SW480 stably overexpressing c-FLIP-s or Bcl-XL; conditions: stable overexpression, 48 hours after infection
Description: Cell culture and adenoviral/retroviral infection. The culture conditions for SW480, HCT 116, and SkBr3 were maintained as previously described (Wu et al., 1997). The adrenal carcinoma cell line, SW13 was a kind gift from R. Sheikhattar (Wistar Institute). Ad-LacZ and Ad-p53 were obtained from B. Vogelstein (Johns Hopkins University) All adenoviruses were propagated, titered, and amplified as previously described (El-Deiry et al., 1993). The retroviral vector pLIB, pLIB-EGFP, pLIB-c-Flip-s, or pLIB-Bcl-XL was cotransfected with pVSVG and pCgP (Dr. Michael Malim, University of Pennsylvania) into 293T cells using the CaPO4 method. The resulting supernatant was used to infect the SW480 cell line (3×10^5 cell/well plated 48 hours before infection) at a titer necessary to obtain greater than 90% infectivity as previously described (Fouchier et al., 1997).
Transfections and fluorescence-activated cell sorting (FACS) analysis. Transfections were carried out as previously described (Wu et al., 1997). In brief, before transfection, 5×10^5 cells/6 cm well were seeded. The cells were transfected with lipofectamine Plus. Four hours after transfections the media was changed and an irreversible caspase inhibitor, Z-IETD-FMK (caspase 8) or Z-LEHD-FMK (caspase 9) was added to the media at a final concentration of 20 μM. […]

SW480 cells [2] = assay: Blue cell assay (cotransfection with pCMVb gal, relative cell survival); conditions: for Blue cells % of vector: blue cells counted after 40 hours, vector-transfected blue cells set to 100% survival
Protocol: Blue Cell Method. The blue cell method was performed as previously described (Meng, R. D., et al., Mol. Ther. 1:130-144 (2000)). Calculations for Table I were carried out by setting the number of vector-transfected blue cells to 100% (at least 300 cells for each independent experiment), and the wild-type and point mutants were determined as a percentage of vector transfected.
Conserved Hydrophobic Residues Are More Critical for Apoptotic Signaling as Compared with Conserved Charged Positions in the KILLER/DR5 DD. In order to functionally characterize the mutant receptors, this study employed three methods to assess cell death following transfection. The first method involved cotransfection of the mutant receptor along with pCMVb gal. Blue cells were counted after 40 hours in order to determine relative cell survival as compared with vector-transfected cells (number of blue cells for vector was set as equivalent to 100% survival; Table I). To specifically measure apoptosis, this study used a cotransfection based flow cytometric assay to functionally assess apoptotic signaling of each substitution mutant. Each mutant was cotransfected with an EGFP-spectrin construct at a 10:1 ratio (mutant plasmid:EGFP-spectrin plasmid) into SW480 cells for 18 hours and the presence of a sub-G1 peak was used to quantitate apoptotic signaling. The use of the spectrinbound GFP allowed for the identification of specifically transfected cells, and the spectrin fusion permits cell membrane retention of GFP even if cells lose membrane permeability due to cell death (Kalejta, R. F., et al., Mol. Ther. 1:130-144 (2000)). […] One example of a signaling-competent and -incompetent mutant is also shown for comparison. Table II lists the results of three independent experiments for each mutant compared with the wild-type protein after subtracting out transfection-induced death.

SW480 cells [3] = assay: PARP cleavage Western blot after transient transfection; conditions: 16 hours after transfection
Protocol: Transfections, in Vitro Translation, and Western Blotting. The colon cancer cell line SW480 was maintained and transfected as described previously (Wu, G. S., et al., Nat. Genet. 17:141-143 (1997)). Protein extracts were harvested in 1×Laemmli sample buffer 16 hours after transfection. PARP and Myc immunoblots were performed following SDS-polyacrylamide gel electrophoresis. Horseradish peroxidase-conjugated secondary antibody (1:5000) treatments were followed by enhanced chemiluminescence. In vitro translation reactions were carried out using 1 μg of wild-type or mutant KILLER/DR5 plasmid DNA and a T7-coupled reticulocyte lysate system.
Conserved Hydrophobic Residues Are More Critical for Apoptotic Signaling as Compared with Conserved Charged Positions in the KILLER/DR5 DD. In order to functionally characterize the mutant receptors, this study employed three methods to assess cell death following transfection. […] Blue cells were counted after 40 hours in order to determine relative cell survival as compared with vector-transfected cells (number of blue cells for vector was set as equivalent to 100% survival; Table I). […] Each mutant was cotransfected with an EGFP-spectrin construct at a 10:1 ratio (mutant plasmid:EGFP-spectrin plasmid) into SW480 cells for 18 hours and the presence of a sub-G1 peak was used to quantitate apoptotic signaling. […]

[4] = tested on: TRAIL DISC (FADD and caspase 8 recruitment) in 293 HEK cells; assay: TRAIL DISC immunoprecipitation; conditions: 16 hours transfection, then 50 ng/ml His-tagged TRAIL 15 minutes at 37° C.
Protocol: TRAIL DISC Immunoprecipitation. 293 HEK cells were plated to achieve 80% confluence at the time of transfection in a T75. 30 ug of the indicated KILLER/DR5 plasmid was transfected by calcium phosphate for 16 hours to minimize loss of transfected cells. The cells were then trypsinized, spun down, and resuspended in 2 ml of complete medium supplemented with 50 ng/ml His tagged-TRAIL and 1 μg/ml anti-6-histidine antibody for 15 minutes at 37° C. For untreated samples, only the TRAIL was excluded. The cells were washed twice with ice-cold phosphate-buffered saline and lysed for 30 minutes on ice in TRAIL DISC IP lysis buffer (30 mM Tris, pH 7.5, 150 mM NaCl, 10% glycerol, 1% Triton X-100). The lysates were cleared twice by centrifugation at 4° C. The supernatants were immunoprecipitated overnight with 30 μl of agarose at 4° C. to isolate the TRAIL DISC. The complexes were subsequently washed four times with TRAIL DISC IP lysis buffer and eluted with elution buffer with 0.1 M dithiothreitol at room temperature for 2 hours. The protein complexes were methanol/chloroform-precipitated and resolved on 15% SDS-polyacrylamide gels. […]
293 HEK cells were chosen due to their ability to be transfected and relative resistance to TRAIL-induced apoptosis. […] The DISC was then immunoprecipitated and analyzed for the presence of the exogenous KILLER/DR5 receptor along with FADD and caspase 8. […]

SW480 cells [5] = assay: GFP-spectrin/PI flow cytometry for sub-G1 peak after transient transfection; design: key to Apoptotic ability (Table II): WT, able to induce apoptosis as well as wild-type protein; ±, 20-25% reduction in ability to induce apoptosis; −, completely deficient in ability to induce apoptosis
Protocol: GFP/PI Fluorescence-activated Cell Sorting Analysis for Sub-G1 Peak. SW480 cells were transfected with a 1:10 ratio of EGFP-spectrin (Kalejta, R. F., et al., Mol. Ther. 1:130-144 (2000)) and KILLER/DR5 expression plasmid. Transfections were harvested at 18 hours after transfection, processed, and analyzed for the presence of a sub-G1 peak as described previously (Ozoren, N., et al., Int. J. Oncol. 16:917-925 (2000)). 10,000 GFP-positive cells were analyzed per experiment, and three independent experiments were performed for each mutant. Percentage of apoptosis was calculated by subtracting transfection-induced sub-G1 peak (vector transfection) from each wild-type or mutant KILLER/DR5 sub-G1 peak. Figures for Tables II and III were generated by setting wild-type death to 100% (˜40% sub-G1 peak at 18 hours) in order to compare point mutants to the wild-type protein.
Conserved Hydrophobic Residues Are More Critical for Apoptotic Signaling as Compared with Conserved Charged Positions in the KILLER/DR5 DD. In order to functionally characterize the mutant receptors, this study employed three methods to assess cell death following transfection. The first method involved cotransfection of the mutant receptor along with pCMVb gal. Blue cells were counted after 40 hours in order to determine relative cell survival as compared with vector-transfected cells (number of blue cells for vector was set as equivalent to 100% survival; Table I). To specifically measure apoptosis, this study used a cotransfection based flow cytometric assay to functionally assess apoptotic signaling of each substitution mutant. Each mutant was cotransfected with an EGFP-spectrin construct at a 10:1 ratio (mutant plasmid:EGFP-spectrin plasmid) into SW480 cells for 18 hours and the presence of a sub-G1 peak was used to quantitate apoptotic signaling. […]

COC(=O)CC[C@H](NC(=O)[C@H](CC(C)C)NC(=O)OCc1ccccc1)C(=O)N[C@@H](Cc1cnc[nH]1)C(=O)N[C@@H](CC(=O)OC)C(=O)CF [Z-LETD-FMK, Z-LEHD-FMK] (Cbz-LE(OMe)HD(OMe)-CH2F)
inhibition of p53-dependent apoptosis (activated caspase 3) [1]: could be inhibited

Bcl-XL: stably over-expressed Bcl-XL, specific inhibitor of caspase 9 activation
inhibition of p53-mediated death after Ad-p53 infection (sub-G1) (SW480 cell lines): partially inhibit

Wild-type KILLER/DR5: wild-type TRAIL receptor KILLER/DR5, Myc-His tagged expression construct
Blue cells % of vector (SW480 cells [2]): 8 ± 0.2 % of vector | blue cell staining retained (SW480 cells [2]; text summary of Table I): 8% | PARP cleavage (SW480 cells [3]): efficiently caused PARP cleavage | FADD and caspase 8 recruitment to TRAIL DISC [4]: robust recruitment of both FADD and caspase 8 | sub-G1 peak (SW480 cells [5]; at 18 hours, absolute value set as 100% wild-type death): ~40%

CC[C@H](C)[C@H](NC(=O)OCc1ccccc1)C(=O)N[C@@H](CCC(=O)OC)C(=O)N[C@H](C(=O)N[C@@H](CC(=O)OC)C(=O)CF)[C@@H](C)O [Z-IETD-FMK] (Cbz-IE(OMe)TD(OMe)-CH2F)
inhibition of p53-dependent apoptosis (activated caspase 3) [1]: could be inhibited

K388A: KILLER/DR5 death domain alanine point mutant
Blue cells % of vector (SW480 cells [2]): 9 ± 1.5 % of vector | Apoptotic ability (Table II) (SW480 cells [5]; 18 hours after transfection): WT | Sub-G1 peak % WT (alanine scanning mutants) (SW480 cells [5]; 18 hours after transfection, transfection-induced death subtracted, wild-type death set to 100%, three independent experiments): 101 ± 11.3 % WT
